Reference: patent US7560473B2 (Institute of Pharmacology and Toxicology Academy of …, priority 2001, dated 2009)
Marks after values point to notes of the source that are not given here.

Legend:
[1] = target: T1, ATP-sensitive potassium channels in vascular smooth muscles (Rattus norvegicus, UniProt Q63563); experiment: Association kinetics of [^3H]P1075 binding in aortic rings; parameters: species or system Wistar rat; settings: 37° C.; drug M: Compound 1 10^−4, Glibencamide 10^−5, ATP 10^−2, ADP 10^−3, UDP 5 × 10^−5, GTP 10^−3, Ade 10^−3; control 4.36 ± 0.45; means ± SD, n = 4~10
T1 construct: The aorta was cut into about 3-5 mm arterial rings and the vascular endothelium was scraped off; from tissue; host or cells: endothelium-removed aortic rings of male Wistar rats
Excerpt: Biological activity experiment 4. Allosteric regulation of novel compounds on ATP-sensitive potassium channels in vascular smooth muscles.
To study the allosteric regulation of compound 1 on ATP-sensitive potassium channels in vascular smooth muscles, the radio-labled-ligand was used in the biological activity experiment 4.
1. The allosteric regulation of compound 1 on the binding sites for the selective KATP blocker glibenclamide in vascular smooth muscles was studied as follows: After decapitated, the male Wistar rat (340±20 g) was immediately incised open the thoracic cavity. The aorta was dissected and immersed in the 4° C. buffer containing 10 mM HEPES to wash off the blood, then carefully extirpated the fat, peripheral connective tissues and thrombus. The aorta was cut into about 3-5 mm arterial rings and the vascular endothelium was scraped off with wet tampon. The arterial rings were blotted, weighted and transferred into the tubes containing proper amount of ice colded physiological saline buffer. In the association kinetics experiment, the arterial circles in the tubes were incubated with, compound 1(10^−4M), pinacidil(10^−4M), ATP(10^−2M), ADP(10^−3M), Ade(10^−3M), […] and equal volume of buffer respectively for 10 min in 25° C. water bath, and then added [^3H]-glibenclamide(3 nM). At 5,10,15,20,30,60,90 and 120 min after incubation, 9 mL ice colded Tris buffer (50 mM) was added to terminate the reaction. After washing off the free and bound [^3H]-glibenclamide, the aorta was blotted, transferred to a scintillator, added 50 uL 30% H2O2 and reacted for 2 h at 80° C. After cooling, 2.5 mL ethyl glycol and 5 mL 1% B-BPD xylene were added in sequence, kept stationary for 8 h and measured under a scintillometer for cpm value. The resulting data were fit into a regression line with In[BEQ/(BEQ-Bt)]vs.t and the parameters for association kinetics were obtained. In the disassociation kinetics experiments, the aorta treated as described above and [^3H]-glibenclamide were incubated for 60 min at 25° C., and then 30 uM glibenclamide was added. 0,5,15,30,60,90 and 120 min later, the cpm values for the complex of [^3H]-glibenclamide and KATP were measured. The resulting data were fit into a regression line with In(B/BEQ)]vs.t and the parameters for disassociation kinetics were obtained. 2. The allosteric regulation of compound 1 on the binding sites for the selective KATP activator P1075 in vascular smooth muscles was studied with the method as described above, but some conditions should be changed as follows: the incubation temperature was 37° C. instead of 25° C.;P1075 was used instead of glibenclamide; In the association kinetics experiments, the time points for sampling were 5,10,15,20,30,45,60 and 90 min, while in the disassociation kinetics experiments, that were 1,3,5,10,20,30,45 and 60 min. Biological activity experiment 5. The effects of compound 1 on the specific binding of high selective activator [^3H]P1075 with ATP-sensitive potassium channels in vascular smooth muscles.

SHRsp = experiment: Prophylaxis and treatment of SHRsp cerebral apoplexy; type: in vivo, rats; settings: 40 mg · kg^−1d^−1 fed
Experimental: Biological activity experiment 8 the prophylaxis and treatment of cerebral apoplexy with compound 1 of formula Ia
The methods of biological activity experiments were carried out as follows: Desired concentration of compound 1 was prepared with distilled water, while desired concentration of nimodipine was prepared with market available Jinglongyu^T oil. 30 male and 30 female SHRsp (10 weeks old, 120-180 g) were purchased from the vascular disease research center of Academy of Military Medical Science. All SHRsp were divided randomly into five groups based on blood pressure, body weight and sex: control group (fed with equal amount of Jinglongyu^T oil), […], […], […], and 4.0 mg.kg^−1d^−1 nimodipine treated group. Each group contained 12 animals and 4-5 animals were fed in a cage. The feedstaff (containing 23-24% protein) was purchased from experimental animal center of Academy of Military Medical Science. The animals were fed with tap water containing 1% NaCl to accelerate the onset of cerebral apoplexy. 12 normal WKY rats (with the same age and sex with the above) were selected as control, and fed with tap water and the same feedstuff. When reached 11 weeks old, the animals were fed with drugs for experiments.

[2] = target: T1, ATP-sensitive potassium channels in vascular smooth muscles; experiment: Inhibition of specific binding of [^3H]P1075 in endothelium-removed rat aorta; parameters: species or system Wistar rat; settings: [^3H] P1075 5 nmol L^−1, 90 minutes at 37° C., endothelium-removed rat aorta
[3] = test system: outward potassium currents of rat tail arterial SMCs; experiment: Whole cell recording of outward potassium currents in rat tail arterial SMCs; type: cell-based, Wistar rats; settings: for Currents, + Compound: outward potassium current amplitude after compound 100 μmol L^−1 in the bath; for Currents, + Compound / Currents, Control (before compound application): X ± SD n = 5; for Currents, Control (before compound application): outward potassium current amplitude before compound application, same cells
Excerpt: Biological activity experiments 6. The effects of novel compounds on potassium currents in isolated arterial vascular smooth muscle cells (SMCs).
The outward currents were, elicited in rat tail arterial SMCs by superfusing extracellular solution under whole cell recording configuration that the depolarizing pulse were applied from −30 mV to +100 mV with the holding potential of −40 mV in 100 ms, 10 mV clamp steps, a frequency of 5 KHz. The compounds were applied in the bath at the concentrations of 100 μmol L^−1. The amplitude of the outward potassium currents was recorded before and after compound application Values were expressed as means±SD. Statistical significance between two groups was evaluated by student's t-test for paired data * P<0.05 **P<0.01 vs control.
1. Preparation of single smooth muscle cells from rat tail arteries: Male Wistar rats (200-250 g) were killed by exsanguination. The tail artery was dissected out and transferred into cold physiological salt solution (PSS) of the following composition (in mM): NaCl 118.3, KCl 4.7, KH2PO4 1.2, MgSO4 1.2, NaHCO3 25.0, CaCl2 2.5, EDTA 0.026 and Glucose 5.0 pH7.4. With the use of a dissecting microscope, the connective tissues were removed and the artery was cut open longitudinally. Endothelium was removed carefully with a cotton swab then the artery was cut into segments with 1 mm long and placed in 4° C. the extracellular solution containing (in mM) NaCl 130, KCl 5, MgCl2 1.2, HEPES 10, Glucose 10, pH7.2 for 20 min. After this incubation, the medium was changed to enzyme solution which was composed of collagenase I (1 mg ml^−1), papain (5 mg ml^−) and bovine serum albumin (2 mg ml^−1). The tissues, were incubated in this solution for 40 min, and then rinsed three times triturated using a fire-polished Pasteur pipette until the medium turned cloudily. The cell suspension was stored in the refrigerator at 4° C.
3. Whole cell recordings: A bath dish with the smooth muscle cells (SMCs) attached and superfused with the extracellular solution at a flow rate of 2 ml min^−1 was mounted onto the stage of an inverted-phase contrast microscope. The microelectrodes having a resistance of (5-8 MΩ) were made from boroscilicate thin-wall glass capillaries, using an automatic multiple-stage, electronic puller (PP830 Japan) and then heat-polished. After establishing a high resistance seal, the patch membrane was disrupted by negative pressure. A commercial patch clamp amplifier (Axon 200B) was used to generate and apply voltages and sample current signals from the cell.

[4] = test system: rats anesthetized with pentobarbital sodium; experiment: Effects on blood pressure, heart rate, cardiac contraction and dilation in rats anesthetized with pentobarbital sodium; type: in vivo, Wistar rats; parameters: unit not given here; settings: change after injection through femoral vein, '+' = increase, all others = decrease; for MBP: mean blood pressure: n = 3~5, doses mg/kg: 2, 8, 12: 10, 3-7, 9-11, 40-44: 5; for DBP: diastolic blood pressure / HR: heart rate / LVSP: left ventricular systolic pressure / SBP: systolic blood pressure / Vpm: the physiological velocity of contractile element shorting / −dp/dtmax: the maximal rate of the decrease of left ventricular pressure: mean, n = 3~5, doses mg/kg: 2, 8, 12: 10, 3-7, 9-11, 40-44: 5
Experimental: Biological activity experiment 1. The effects of 16 compounds represented by formula I on blood pressure, heart rate, cardiac contraction and dilation in rats anesthetized with pentobarbital sodium.
The methods of biological activity experiment 1 were as follows: Male Wistar rats, weighing 280±30 g were purchased from the experimental animal center of Academy of Military Medical Sciences. Rats were anesthetized with pentobarbital sodium (45 mg/kg) by peritoneal injection. A PE50 polyethylene catheter was inserted into the left ventricle through right carotid artery for cardiac function measurement with a pressure energe exchanger, wherein the signal is put into a SMUP-PC biosignal processing system. Cardiac functional parameters such as HR, LVSP, +dp/dtmax, −dp/dtmax and Vpm were recorded. Another two PE50 polyethylene catheters were inserted into the right femoral artery and vein respectively for blood pressure measurement wherein the artery cathether was linked to a four-channel physiology recorder (RM-6000) through a MPU-0.5A Type pressure energe exchanger, which recorded SBP, DBP and MBP, while the vein catheter was used for compound administration. The methods were described by Liu Wei et al: Liu Wei, Wang Hai, Xiao Wen-Bin. […] Bull Acad Mil Med Sci 1996;20(4):245˜248.

T1 sequence (Q63563 1-1545 isoform Q63563-2): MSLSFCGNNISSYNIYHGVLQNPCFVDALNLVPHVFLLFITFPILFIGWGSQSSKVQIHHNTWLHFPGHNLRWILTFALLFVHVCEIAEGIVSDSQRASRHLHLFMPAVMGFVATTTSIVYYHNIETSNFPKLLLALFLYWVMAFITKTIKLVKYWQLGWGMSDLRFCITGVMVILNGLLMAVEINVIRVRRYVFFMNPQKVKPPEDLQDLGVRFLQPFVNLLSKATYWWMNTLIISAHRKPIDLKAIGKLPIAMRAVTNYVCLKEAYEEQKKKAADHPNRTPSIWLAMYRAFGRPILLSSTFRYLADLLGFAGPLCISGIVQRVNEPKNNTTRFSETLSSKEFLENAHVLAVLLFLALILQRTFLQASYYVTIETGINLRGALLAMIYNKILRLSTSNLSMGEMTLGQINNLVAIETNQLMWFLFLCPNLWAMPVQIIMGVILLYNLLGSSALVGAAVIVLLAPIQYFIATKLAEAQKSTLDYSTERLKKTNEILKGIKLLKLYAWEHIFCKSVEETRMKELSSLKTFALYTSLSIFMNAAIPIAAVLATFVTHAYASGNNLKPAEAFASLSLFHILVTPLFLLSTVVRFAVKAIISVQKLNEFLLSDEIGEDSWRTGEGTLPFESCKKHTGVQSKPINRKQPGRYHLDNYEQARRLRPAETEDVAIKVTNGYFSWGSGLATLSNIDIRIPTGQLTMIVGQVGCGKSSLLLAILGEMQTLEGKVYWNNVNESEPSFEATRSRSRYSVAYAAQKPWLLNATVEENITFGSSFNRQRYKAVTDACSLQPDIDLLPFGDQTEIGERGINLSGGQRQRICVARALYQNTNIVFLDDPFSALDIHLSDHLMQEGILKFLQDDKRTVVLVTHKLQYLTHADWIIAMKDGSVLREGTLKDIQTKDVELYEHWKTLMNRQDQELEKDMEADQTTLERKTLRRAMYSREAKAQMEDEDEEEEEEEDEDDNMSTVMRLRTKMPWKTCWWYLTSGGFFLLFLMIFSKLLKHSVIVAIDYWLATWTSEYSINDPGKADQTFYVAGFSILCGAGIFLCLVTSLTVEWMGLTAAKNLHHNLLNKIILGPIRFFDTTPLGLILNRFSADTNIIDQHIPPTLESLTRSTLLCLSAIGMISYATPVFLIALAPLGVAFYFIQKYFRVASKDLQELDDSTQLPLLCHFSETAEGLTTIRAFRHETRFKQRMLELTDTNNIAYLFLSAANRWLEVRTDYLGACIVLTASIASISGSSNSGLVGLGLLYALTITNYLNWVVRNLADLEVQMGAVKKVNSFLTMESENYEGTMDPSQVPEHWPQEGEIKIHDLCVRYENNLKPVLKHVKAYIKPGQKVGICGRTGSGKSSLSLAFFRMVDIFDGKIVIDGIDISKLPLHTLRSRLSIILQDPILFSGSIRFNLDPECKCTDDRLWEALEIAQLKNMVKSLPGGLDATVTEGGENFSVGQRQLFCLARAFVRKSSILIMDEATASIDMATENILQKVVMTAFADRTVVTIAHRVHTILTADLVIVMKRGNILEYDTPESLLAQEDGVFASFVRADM
T1 sequence (Q63664 whole entry partner): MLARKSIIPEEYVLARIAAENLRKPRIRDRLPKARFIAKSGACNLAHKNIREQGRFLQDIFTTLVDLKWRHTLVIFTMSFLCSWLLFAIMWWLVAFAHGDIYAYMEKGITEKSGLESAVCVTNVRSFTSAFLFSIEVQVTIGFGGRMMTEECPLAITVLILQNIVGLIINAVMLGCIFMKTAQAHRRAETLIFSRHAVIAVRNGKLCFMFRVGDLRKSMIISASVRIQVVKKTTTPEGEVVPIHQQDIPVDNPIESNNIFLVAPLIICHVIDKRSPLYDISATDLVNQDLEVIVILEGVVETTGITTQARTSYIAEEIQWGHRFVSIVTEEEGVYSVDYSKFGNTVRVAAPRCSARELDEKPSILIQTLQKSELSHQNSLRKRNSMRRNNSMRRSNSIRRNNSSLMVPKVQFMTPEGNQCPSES

Row | SMILES | Currents, + Compound [3] | Currents, Control (before compound application) [3] [nA] | MBP: mean blood pressure [4] | DBP: diastolic blood pressure [4] | HR: heart rate [4] | LVSP: left ventricular systolic pressure [4] | SBP: systolic blood pressure [4] | Vpm: the physiological velocity of contractile element shorting [4] | −dp/dtmax: the maximal rate of the decrease of left ventricular pressure [4] | other results
1 | Nc1nc2c(ncn2[C@@H]2O[C@H](COP(=O)(O)OP(=O)(O)OP(=O)(O)O)[C@@H](O)[C@H]2O)c(=O)[nH]1 [GTP] | – | – | – | – | – | – | – | – | – | Association kinetics kobs of [^3H]P1075 binding [1]: 3.86 ± 0.19 ×10^−2 nM^−1 · min^−1
2 | COCCOC(=O)C1=C(C)NC(C)=C(C(=O)OC(C)C)C1c1cccc([N+](=O)[O-])c1 (centres unmarked) [Nimodipine, nimodipine, reference compound] | – | – | – | – | – | – | – | – | – | Survival time (SHRsp; control 4.6 ± 3.8, means ± SD): 11.1 ± 2.7 days; Period needed for onset of cerebral apoplexy (SHRsp; control 48.3 ± 7.4, means ± SD): 66.0 ± 14.8 days; Death rate of cerebral apoplexy (SHRsp; n 12, control 50.0): 9.1* %; Rate of cerebral apoplexy (SHRsp; n 12, control 83.3): 36.4* %
3 | CCC(C)(C)N=C(NC#N)Nc1cccnc1 [P1075, reference compound] | – | – | – | – | – | – | – | – | – | IC50 [2]: 9.1 ± 1.3 nM
4 | CC(C)C(C)(C)N [compound 2] | 1.01 ± 0.57 nA | 0.91 ± 0.49 | 24 | 15 | 20 | 116 | 38 | 1.16 | 54 | –
5 | CNC(C)(C)C(C)C [compound 3] | 0.60 ± 0.34 nA | 0.56 ± 0.31 | 22 | 19 | 43 | 111 | 29 | 0.49 | 157 | –
6 | CCNC(C)(C)C(C)C [compound 4] | 0.69 ± 0.14** nA | 0.61 ± 0.12 | 25 | 23 | 44 | 146 | 31 | 0.45 | 177 | –
7 | CCCCNC(C)(C)C(C)C [compound 6, N-butyl-2,3-dimehyl-2-butylamine] | 1.18 ± 0.54* nA | 0.49 ± 0.23 | 49 | 43 | 111 | 263 | 61 | 0.98 | 276 | –
8 | CCC(C)NC(C)(C)C(C)C (centres unmarked) [compound 13, N-(1-methylpropyl)-2,3-dimethyl-2-butylamine] | 0.85 ± 0.31** nA | 0.55 ± 0.34 | – | – | – | – | – | – | – | –
9 | CC(C)C(C)(C)NCC1CC1 [compound 15, N-cyclopropylmethyl-2,3-dimethyl-2-butylamine] | 1.30 ± 0.45* nA | 0.83 ± 0.24 | – | – | – | – | – | – | – | –
10 | CC(C)C(C)(C)NCc1ccccc1 [compound 24] | 0.63 ± 0.19 nA | 0.65 ± 0.19 | – | – | – | – | – | – | – | –
11 | C=CCNC(C)(C)C(C)C [compound 25, N-allyl-2,3-dimethyl-2-butylamine] | 1.46 ± 0.50** nA | 0.68 ± 0.19 | – | – | – | – | – | – | – | stimulation of potassium channel activities (in words) ([3]; 100 μmol L^−1, rat tail arterial SMCs): Maximum potency
12 | CC(C)C(C)(C)NC(=O)c1cccnc1 [compound 39] | 0.51 ± 0.22 nA | 0.46 ± 0.14 | – | – | – | – | – | – | – | –
